Target: VR (Homo sapiens, UniProt Q8NER1)
Experiment: not given
Conditions: binds to VR with no more than moderate affinity; cited from earlier work

Chain of VR (Q8NER1 whole entry): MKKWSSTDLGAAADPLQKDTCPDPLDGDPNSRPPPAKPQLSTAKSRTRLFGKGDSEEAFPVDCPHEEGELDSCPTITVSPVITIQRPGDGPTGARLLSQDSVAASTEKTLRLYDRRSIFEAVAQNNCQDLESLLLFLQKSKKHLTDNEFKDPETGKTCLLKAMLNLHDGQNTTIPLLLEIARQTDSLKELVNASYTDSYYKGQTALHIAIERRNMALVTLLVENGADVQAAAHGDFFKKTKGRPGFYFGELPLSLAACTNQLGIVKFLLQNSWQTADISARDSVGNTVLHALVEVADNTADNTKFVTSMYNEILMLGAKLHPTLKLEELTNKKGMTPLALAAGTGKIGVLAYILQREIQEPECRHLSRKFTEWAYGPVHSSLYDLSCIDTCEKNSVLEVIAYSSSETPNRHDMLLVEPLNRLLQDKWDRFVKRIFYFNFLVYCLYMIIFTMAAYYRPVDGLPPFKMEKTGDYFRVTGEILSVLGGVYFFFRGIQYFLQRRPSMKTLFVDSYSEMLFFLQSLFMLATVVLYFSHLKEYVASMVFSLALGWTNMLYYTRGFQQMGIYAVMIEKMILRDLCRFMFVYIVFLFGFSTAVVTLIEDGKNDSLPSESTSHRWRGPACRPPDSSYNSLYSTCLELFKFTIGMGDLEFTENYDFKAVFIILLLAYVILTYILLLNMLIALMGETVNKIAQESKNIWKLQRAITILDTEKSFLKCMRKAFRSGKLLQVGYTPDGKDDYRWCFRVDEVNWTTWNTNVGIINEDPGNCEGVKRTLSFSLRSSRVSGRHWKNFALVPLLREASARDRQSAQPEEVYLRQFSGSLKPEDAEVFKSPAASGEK

| Structure (SMILES) | Ki [nM] |
| --- | --- |
| Cl.Cl.Cl.Cl.Cl.Cl.N.N.N.N.N.N.N.N.N.N.N.N.N.N.[O-2].[O-2].[Ru+3].[Ru+3].[Ru+4] [ruthenium red] | ≥ 140000 |

Target: T1, human capsaicin receptor (Homo sapiens, UniProt Q8NER1)
T1 construct: expressed in transfected cells
Experiment: Calcium mobilization assay, determination of antagonist activity (Example 6)
Format: cell-based
Conditions: cells expressing human capsaicin receptor, capsaicin-induced fluorescence response; read-out: IC50
Description: A cDNA encoding full length human capsaicin receptor (SEQ ID NO:1, 2 or 3 of U.S. Pat. No. 6,482,611) is subcloned in the plasmid pBK-CMV (Stratagene, La Jolla, Calif.) for recombinant expression in mammalian cells.
Human embryonic kidney (HEK293) cells are transfected with the pBK-CMV expression construct encoding the full length human capsaicin receptor using standard methods. The transfected cells are selected for two weeks in media containing G418 (400 μg/ml) to obtain a pool of stably transfected cells. Independent clones are isolated from this pool by limiting dilution to obtain clonal stable cell lines for use in subsequent experiments.
Cells transfected with expression plasmids (as described in Example 4) and thereby expressing human capsaicin receptor are seeded and grown to 70-90% confluency in FALCON black-walled, clear-bottomed 96-well plates (#3904, BECTON-DICKINSON, Franklin Lakes, N.J.). The culture medium is emptied from the 96 well plates and FLUO-3 AM calcium sensitive dye (Molecular Probes, Eugene, Oreg.) is added to each well (dye solution: 1 mg FLUO-3 AM, 440 μL DMSO and 440 μl 20% pluronic acid in DMSO, diluted 1:250 in Krebs-Ringer HEPES (KRH) buffer (25 mM HEPES, 5 mM KCl, 0.96 mM NaH2PO4, 1 mM MgSO4, 2 mM CaCl2, 5 mM glucose, 1 mM probenecid, pH 7.4), 50 μl diluted solution per well). Plates are covered with aluminum foil and incubated at 37° C. for 1-2 hours in an environment containing 5% CO2. After the incubation, the dye is emptied from the plates, and the cells are washed once with KRH buffer, and resuspended in KRH buffer.
To measure the ability of a test compound to agonize or antagonize a calcium mobilization response in cells expressing capsaicin receptors to capsaicin or other vanilloid agonist, the EC50 of the agonist capsaicin is first determined. An additional 20 μl of KRH buffer and 1 μl DMSO is added to each well of cells, prepared as described above. 100 μl capsaicin in KRH buffer is automatically transferred by the FLIPR instrument to each well. Capsaicin-induced calcium mobilization is monitored using either FLUOROSKAN ASCENT (Labsystems; Franklin, Mass.) or FLIPR (fluorometric imaging plate reader system; Molecular Devices, Sunnyvale, Calif.) instruments. Data obtained between 30 and 60 seconds after agonist application are used to generate an 8-point concentration response curve, with final capsaicin concentrations of 1 nM to 3 μM. KALEIDAGRAPH software (Synergy Software, Reading, Pa.) is used to fit the data to the equation: y=a*(1/(1+(b/x)^c)) to determine the 50% excitatory concentration (EC50) for the response. In this equation, y is the maximum fluorescence signal, x is the concentration of the agonist or antagonist (in this case, capsaicin), a is the Emax, b corresponds to the EC50 value and c is the Hill coefficient. Determination of Agonist Activity
Test compounds are dissolved in DMSO, diluted in 20 μl KRH buffer so that the final concentration of test compounds in the assay well is between 1 μM and 5 μM, and added to cells prepared as described above. The 96 well plates containing prepared cells and test compounds are incubated in the dark, at room temperature for 0.5 to 6 hours. It is important that the incubation not continue beyond 6 hours. Just prior to determining the fluorescence response, 100 μl capsaicin in KRH buffer at twice the EC50 concentration determined as described above is automatically added by the FLIPR instrument to each well of the 96 well plate for a final sample volume of 200 μl and a final capsaicin concentration equal to the EC50. The final concentration of test compounds in the assay wells is between 1 μM and 5 μM. […] The concentration of antagonist required to provide a 50% decrease, relative to the response observed in the presence of capsaicin and without antagonist, is the IC50 for the antagonist, and is preferably below 1 micromolar, 100 nanomolar, 10 nanomolar or 1 nanomolar.

T1 sequence (Q8NER1 whole entry): as above

| Structure (SMILES) | IC50 [nM] |
| --- | --- |
| Cn1cnc2c(=O)n(-c3ccc(Cl)cc3)c(Oc3ccc(C#N)c(F)c3F)nc21 [Compound 28, 4-{[1-(4-chlorophenyl)-9-methyl-6-oxo-6,9-dihydro-1H-purin-2-yl]oxy}-2,3-difluorobenzonitrile] | ≤ 100 |
| Cn1cnc2c(=O)n(-c3ccc(Cl)cc3)c(Oc3cc(F)c(F)c(F)c3)nc21 [Compound 30, 1-(4-chlorophenyl)-9-methyl-2-(3,4,5-trifluorophenoxy)-1,9-dihydro-6H-purin-6-one] | ≤ 100 |
| O=c1c2ncsc2nc(Oc2cc(F)c(F)cc2F)n1-c1ccc(F)cc1 [Compound 35, 6-(4-fluorophenyl)-5-(2,4,5-trifluorophenoxy)[1,3]thiazolo[5,4-d]pyrimidin-7(6H)-one] | ≤ 100 |
| O=c1c2ncsc2nc(Oc2cc(F)c(F)c(F)c2)n1-c1ccc(F)cc1 [Compound 37, 6-(4-fluorophenyl)-5-(3,4,5-trifluorophenoxy)[1,3]thiazolo[5,4-d]pyrimidin-7(6H)-one] | ≤ 100 |
| Cn1cnc2c(=O)n(-c3ccc(Cl)cc3)c(Oc3cccc(C(F)(F)F)c3F)nc21 [Compound 42, 1-(4-chlorophenyl)-2-[2-fluoro-3-(trifluoromethyl)phenoxy]-9-methyl-1,9-dihydro-6H-purin-6-one] | ≤ 100 |
| O=c1c2ncsc2nc(Oc2cc(F)cc(C(F)(F)F)c2)n1-c1ccc(F)cc1 [Compound 44, 6-(4-fluorophenyl)-5-[3-fluoro-5-(trifluoromethyl)phenoxy][1,3]thiazolo[5,4-d]pyrimidin-7(6H)-one] | ≤ 100 |
| O=c1c2ncsc2nc(Oc2cccc(C(F)(F)F)c2)n1-c1ccc(F)cc1 [Compound 46, 6-(4-fluorophenyl)-5-(3-(trifluoromethyl)phenoxy)thiazolo[5,4-d]pyrimidin-7(6H)-one] | ≤ 100 |
| Cn1cnc2c(=O)n(-c3ccc(F)cc3)c(Oc3cccc(C(F)(F)F)c3)nc21 [Compound 48, 1-(4-fluorophenyl)-9-methyl-2-[3-(trifluoromethyl)phenoxy]-1,9-dihydro-6H-purin-6-one] | ≤ 100 |
| Cn1cnc2c(=O)n(-c3ccc(F)cc3)c(Oc3cc(F)cc(C(F)(F)F)c3)nc21 [Compound 49, 1-(4-fluorophenyl)-2-[3-fluoro-5-(trifluoromethyl)phenoxy]-9-methyl-1,9-dihydro-6H-purin-6-one] | ≤ 100 |
| Cc1csc2c(=O)n(-c3ccc(Cl)cc3)c(Oc3ccc(Cl)cc3F)nc12 [Compound 51, 2-(4-chloro-2-fluorophenoxy)-3-(4-chlorophenyl)-7-methylthieno[3,2-d]pyrimidin-4(3H)-one] | ≤ 100 |
| Cc1csc2c(=O)n(-c3ccc(Cl)cc3)c(Oc3ccc(F)cc3F)nc12 [Compound 52, 3-(4-chlorophenyl)-2-(2,4-difluorophenoxy)-7-methylthieno[3,2-d]pyrimidin-4(3H)-one] | ≤ 100 |
| Cc1csc2c(=O)n(-c3ccc(F)cc3)c(Oc3ccc(Cl)cc3F)nc12 [Compound 54, 2-(4-chloro-2-fluorophenoxy)-3-(4-fluorophenyl)-7-methylthieno[3,2-d]pyrimidin-4(3H)-one] | ≤ 100 |
| Cc1csc2c(=O)n(-c3ccc(F)cc3)c(Oc3c(F)ccc(F)c3F)nc12 [Compound 55, 3-(4-fluorophenyl)-7-methyl-2-(2,3,6-trifluorophenoxy)thieno[3,2-d]pyrimidin-4(3H)-one] | ≤ 100 |
| Cc1cccc(Oc2nc3c(ncn3C)c(=O)n2-c2ccc(F)cc2)c1C [Compound 63, 2-(2,3-dimethylphenoxy)-1-(4-fluorophenyl)-9-methyl-1,9-dihydro-6H-purin-6-one] | ≤ 100 |

The remaining lines, values ahead:

| IC50 [nM] | Structure (SMILES) |
| --- | --- |
| ≤ 100 | Cn1cnc2c(=O)n(-c3ccc(F)cc3)c(Oc3ccc(C#N)c(F)c3F)nc21 [Compound 29, 2,3-difluoro-4-{[1-(4-fluorophenyl)-9-methyl-6-oxo-6,9-dihydro-1H-purin-2-yl]oxy}benzonitrile] |
| ≤ 100 | O=c1c2ncccc2nc(Oc2ccc(F)cc2F)n1-c1ccc(F)cc1 [Compound 31, 2-(2,4-difluorophenoxy)-3-(4-fluorophenyl)pyrido[3,2-d]pyrimidin-4(3H)-one] |
| ≤ 100 | O=c1c2ncccc2nc(Oc2ccc(F)c(F)c2F)n1-c1ccc(F)cc1 [Compound 32, 3-(4-fluorophenyl)-2-(2,3,4-trifluorophenoxy)pyrido[3,2-d]pyrimidin-4(3H)-one] |
| ≤ 100 | O=c1c2ncsc2nc(Oc2ccc(F)c(F)c2F)n1-c1ccc(F)cc1 [Compound 33, 6-(4-fluorophenyl)-5-(2,3,4-trifluorophenoxy)[1,3]thiazolo[5,4-d]pyrimidin-7(6H)-one] |
| ≤ 100 | O=c1c2ncsc2nc(Oc2cccc(F)c2F)n1-c1ccc(F)cc1 [Compound 34, 5-(2,3-difluorophenoxy)-6-(4-fluorophenyl)[1,3]thiazolo[5,4-d]pyrimidin-7(6H)-one] |
| ≤ 100 | O=c1c2ncsc2nc(Oc2cc(F)cc(F)c2F)n1-c1ccc(F)cc1 [Compound 36, 6-(4-fluorophenyl)-5-(2,3,5-trifluorophenoxy)[1,3]thiazolo[5,4-d]pyrimidin-7(6H)-one] |
| ≤ 100 | O=c1c2ncsc2nc(Oc2ccc(Cl)cc2F)n1-c1ccc(F)cc1 [Compound 38, 5-(4-chloro-2-fluorophenoxy)-6-(4-fluorophenyl)[1,3]thiazolo[5,4-d]pyrimidin-7(6H)-one] |
| ≤ 100 | Cn1cnc2c(=O)n(-c3ccc(F)cc3)c(Oc3cccc(C(F)(F)F)c3F)nc21 [Compound 43, 1-(4-fluorophenyl)-2-[2-fluoro-3-(trifluoromethyl)phenoxy]-9-methyl-1,9-dihydro-6H-purin-6-one] |
| ≤ 100 | Cc1csc2c(=O)n(-c3ccc(Cl)cc3)c(Oc3ccc(F)c(F)c3F)nc12 [Compound 50, 3-(4-chlorophenyl)-7-methyl-2-(2,3,4-trifluorophenoxy)thieno[3,2-d]pyrimidin-4(3H)-one] |
| ≤ 100 | Cc1csc2c(=O)n(-c3ccc(F)cc3)c(Oc3ccc(F)c(F)c3F)nc12 [Compound 53, 3-(4-fluorophenyl)-7-methyl-2-(2,3,4-trifluorophenoxy)thieno[3,2-d]pyrimidin-4(3H)-one] |
